This note sets out measurements from patent publication US20030100508A1, “Carbohydrate epitope mimic compounds and uses thereof” (priority 1999, published 2003).

Test [1] deals with Ox42 (MAC 1), TNF and GFAP expression. Description: gp120-mediated inflammation and neuropathy, sciatic nerve Oxycel delivery, spinal cord immunohistochemistry. Type of test: in vivo, rat. From the text: Herzberg et al coated the sciatic nerve of rats with oxidized cellulose saturated with gp120 or BSA as control. Persistant hyperalgesia and allodynia were observed throughout a one month testing period in rats treated with gp120. […] This system was utilized to assess the affect of the 8-mer peptide on gp120-mediated inflammation and neuropathy, using Ox42 (MAC 1), TNF and GFAP expression as immunohistochemical markers.
Ox42 (also called MACl) is a general marker for immune/inflammatory activation of the central nervous system (expressed by microglia—when those proliferate and/or extend their processes). If Ox42 marker is present two weeks, and particularly four weeks, after initial neural injury, this indicates a chronic problem. An ongoing inflammatory process in the CNS is correlative of neuropathy. TNF is a cytokine indicating an inflammatory process, and in this case neuronal degeneration. It's expression increases in the CSF of pateints with HIV related neuropathy and is thought to play a role in the degenerative process in these patients (see “role of immune activation and cytokine expression in HIV-1 associated neurologic disease” bay Masaru Yoshioka Walter G Bradley, Paul Shapshak, Isao Nagano, Rene V. Stewart, Ke-Qin Xin, Ashok Srivastava, and Shozo Nakamura in Advance in Neuroimmunology) Vol.5 pp 335-358, 1995. GFAP is a marker for a general activation of astrocytes in the spinal cord and is expressed following damage to the CNS.
Male Sprague Dawley rats weighing 200-225 g were used.
The left sciatic nerve was isolated by blunt dissection, and wrapped with oxidized cellulose (Oxycel, Becton Dickinson) saturated with 250 ul sterile saline containing 400 ng of recombinant gp120 protein alone, or in the presence of 43 ng of the 8-mer L2/HNK-1 mimic peptide (corresponding to a 10×excess […] on a mole-per-mole basis), utilizing the Oxycel delivery method of Eliav et al (Eliav et al (1999) Pain 83(2): 169-82. Eight animals were treated with gp120 alone and eight animals were treated with gp120 and 43 ng peptidomimetic compound.
Animals were euthanized (overdose of xylazine/ketamine) at two and four weeks following surgery and perfused transcardially with ice cold saline followed by 4% paraformaldehyde.
Spinal cords were harvested and cryoprotected overnight at 30% sucrose solution 10 Sections of 40 um thickness from the lumbar enlargement from each animal were thaw mounted onto gelatized slides and stained immunohistochemically for Ox-42 (MACl), TNF and GFAP.

Test [2] has as its system oligodendrocytes in mixed cerebellar cultures. Description: Oligodendrocyte cultures treated with HIV gp120 and HNK-1 epitope mimic peptide, RIP immunostaining. The class given is cell-based, rat. The procedure: For these experiments, mixed neural cultures were isolated from rat cerebellum. Briefly, tissue was harvested from postnatal day five rat pups, dissociated and plated on poly-lysine coated 24 well cluster plates in Neural basal medium plus B27 supplement, 1% FBS and penicillin and streptomycin. HNK-1 epitope mimic peptide 8 mer (FLHTRLFV) (SEQ ID NO:8) (1 mM, 100 nM or 10 nM) was added to wells at the time of plating. Three days later, 1 nM gp120 was preincubated with 1 mM, 100 nM or 10 nM HNK-1 peptidomimetic for 1 hour at 37° C. After one hour, gp120 or gp120 plus HNK-1 peptidomimetic was added to mixed cerebellar cultures in sets of 6 replicates. Four days later, cultures were fixed and immunostained with the oligodendrocyte specific antibody marker, RIP. Data was analyzed by counting the number of RIP positive cells in twenty 20×-microscope fields. In addition, the number of RIP positive cells, mature oligodendrocytes with extensive intact membrane sheaths were counted. The cells are depicted in FIG. 20.

Test [3] shares this test system. Described as above. Type of test: cell-based, rat. The source holds these as a separate data set.
Test [4] relates to L2-412 antibody. Briefly: Competition ELISA: binding of mAb L2-412 to immobilized L2/HNK-1 glycolipids. More on the design: species or system rat. The procedure:
FIG. 2A depicts competition of the L2-412 antibody to immobilized L2/HNK-1 glycolipids by various inhibitors: positive phage (denoted phage 15-15), negative phage (denoted neg. control phage), free peptide (denoted peptide 15-15) and SO3-sugar. L2-412 was preincubated with a stepwise 2-fold dilution series of the free peptide (starting concentration 2.2 mM), SO3-sugar (starting concentration 5 mM), positive phage and negative phage (starting concentration 10^12TUs/ml), and added to the coated glycolipid. After incubation and washing, the bound antibody was detected with HRP anti-rat antibody.
FIG. 2B depicts the percentage inhibition of L2-412 antibody to immobilized L2/HNK-1 glycolipids by various inhibitors. The percentage is calculated for the point in FIG. 2A with the highest concentration of inhibitor. […]
Microtiter plates (Nunc) were coated with the L2/HNK-1 glycolipids (50 μl, 1 μg/ml, dissolved in EtOH) and allowed to dry overnight. While blocking the wells for 2 hours with 0.5% (w/v) fatty-acid-free BSA in PBS, a limiting concentration of ^L2-412, previously determined, was pre-incubated with successive 2-fold dilutions of the inhibitor, starting at a concentration of 2.2 mM for the free peptide, 5 mM for the SO3 sugar and 10^12 positive and negative phages (the negative phages were cloned from the unbound fraction of the first round of screening). […]
A general note: In an ELISA, binding on a coated surface is turned into a signal by an enzyme label.

A further test has as its target T1, laminin (Mus musculus, UniProt P19137).
T1 construct: purchased Gibco/BRL
Description: Binding of phage to immobilized laminin. As to conditions: laminin 10 μg/ml coating; anti-M13 HRP detection. The procedure:
FIG. 5 depicts binding of phage 15-15 and control phage UBR2 to immobilized laminin (100 μl of 10 μg/ml used for coating). Bound phage were detected by HRP-conjugated anti-M13 antibody. The results are presented as OD405 vs. relative concentration of the phage preparation (a relative concentration of 100 corresponds to […] phage).

In a further test the test system is HNK-1 antibody. Description: Phage ELISA: binding of phage clones to coated HNK-1 antibody. More on the design: species or system mouse. The note with it: 100 μl culture supernatant; antibody 1 μg/ml coating. The procedure:
(§1) Comparative binding of the HNK-1 selected phage/positive clones versus the L2-412 selected 15-15 phage to bound L2-412 antibody, IgG, HNK-1, and IgM is shown FIG. 14. Supernatant (100 μl) from an overnight culture of bacteria secreting phade were incubated with coated antibodies (100 μl of 1 μg/ml useded for coating) and detected with HRP-coupled anti-phage antibody.
Individual colonies resistant to tetracycline and kanamycin were grown in LB containing 20 μg/mil tetracycline in 96-wells plates (Nunc) overnight at 37° C. (300 μl/well), then centrifuged 10 minutes at 3000 rpm in Jouan centrifuge and the supernatant (100 μl) was incubated for 2 hr in another 96-well plate previously coated with mAbL2-412 (100 μl, μg/l ml overnight at 4° C.) and blocked by incubation for 2 hours with PBS-0.5% (w/v) BSA. After washing 5 times, the binding of the phages was detected by incubation with HRP-conjugated anti-M13 antibody (Pharmacia, Biotech.) for 1 hour at a dilution of 1:2000. The peroxidase reaction was started by the addition of 100 μl developer containing 0.01% hydrogen peroxide and 0.1% (w/v) 2,2′-azino-bis(3-ethylbenzthiazoline-6-sulfonic acid)-diammonium salt (ABTS, Boehringer Mannheim) in HRP buffer (0.1M sodium acetate, 0.05M NaH2PO4, pH adjusted to 4.2 with acetic acid). The absorbance of the colored reaction product was determined at 405 nm in a Multiscan TitertekPlus (Flow, Switzerland). […] Two individual colonies were picked and re-assayed for positivity towards mAb L2-412. Positive single colonies were stored in 40% glycerol at −80° C.

In test [5] the test system is embryonic neural cell cultures. Briefly: Embryonic neural cell cultures treated with L1 and chemotherapeutic agents. The class given is cell-based. The note with it: with cisplatin and vincristin; experiments not detailed. The source says: Thus, in view of the recognized and previously described role of HNK-1 expressing cells, natural killer cells, in the surveillance of tumors and virus-infected cells, the carbohydrate epitope mimic peptides can be utilized in enhancing, activating or otherwise modulating the surveillance and clearance of tumors and virus-infected cells. The carbohydrate epitope mimic peptides of the present invention may also have use in the protection of cells, particularly neural cells from chemotherapeutic agents. In experiments not specifically detailed in the Examples herein, the inventors treated embryonic neural cell cultures with a combination of the neural cell adhesion molecule L1 and chemotherapeutic agents, including cisplatin and vincristin. The cell cytopathic effects of the chemotherapeutic agents were reduced in te presence of L1. L1expresses the HNK-1 epitope and a good portion of L1 homophilic binding is HNK-1 mediated. Thus, it is contemplated that the L2/HNK-1 epitope mimic peptide of the present invention can be utilized in the protection of cells, particularly neural cells from chemotherapeutic agents. Untoward cellular cytotoxic effects and problematic symptoms associated therewith are a recognized and limiting side effect of chemotherapy, inherently limiting the dose of the agents which can be administered.

For test [6], the system named is L2-412 antibody. Briefly: Phage ELISA: binding of phage clones to coated L2-412 antibody. More on the design: species or system rat. As to conditions: 100 μl culture supernatant; antibody 1 μg/ml coating. The procedure:
as §1
Individual colonies resistant to tetracycline and kanamycin were grown in LB containing 20 μg/mil tetracycline in 96-wells plates (Nunc) overnight at 37° C. (300 μl/well), then centrifuged 10 minutes at 3000 rpm in Jouan centrifuge and the supernatant (100 μl) was incubated for 2 hr in another 96-well plate previously coated with mAbL2-412 (100 μl, μg/l ml overnight at 4° C.) and blocked by incubation for 2 hours with PBS-0.5% (w/v) BSA. After washing 5 times, the binding of the phages was detected by incubation with HRP-conjugated anti-M13 antibody (Pharmacia, Biotech.) for 1 hour at a dilution of 1:2000. […] The absorbance of the colored reaction product was determined at 405 nm in a Multiscan TitertekPlus (Flow, Switzerland). […]

For test [7], the target named is monoclonal antibody L2-412. Description: competition ELISA: L2-412 preincubated with inhibitor (2-fold dilutions from 2.2 mM), then binding to immobilized L2/HNK-1 glycolipid.
Setting [8] is: gp120 400 ng + 43 ng 8-mer peptide on sciatic nerve, lumbar spinal cord.
[9] abbreviates: gp120 (1 nM) + 10 nM peptide, preincubated.
[10] abbreviates: gp120 (1 nM) + 100 nM peptide, preincubated.
Setting [11] is: gp120 (1 nM) + 1 uM peptide, preincubated.

On to “F L H T R L F V (FLHTRLFV; m13 library) [Consensus peptide]”, for which, in [1] (setting [8]), the GFAP immunoreactive area is given as 8745 pixels. In addition, the Ox42 immunoreactive area in [1] (setting [8]) was found to be 1557 pixels. In addition, the TNF immunoreactive area in test [1] (setting [8]) is listed as 1478 pixels. Further, in [1] (gp120 + peptide versus Oxycel alone), the “effect on gp120-induced immunoreactivity” value is given as “brings those values back to the same level as with Oxycel alone”. For the same molecule, the “cellular morphology of spinal cord sections, light microscopy” value in test [1] (gp120 in combination with the HNK-1 peptide) is on record as “This cellular morphology was not observed”. Further, the “fluorescence microscopy of RIP positive oligodendrocytes” value is given as “Numerous mature RIP positive oligodendrocytes with extensive membrane sheaths were observed” in test [2] (10 nM HNK-1 epitope mimic peptide) and “indistinguishable from mature RIP positive cells observed in cultures treated with the HNK-1 epitope mimic peptide only” in test [3] (1 nM gp120 preincubated with 1 uM HNK-1 epitope mimic peptide). Besides, the “# mature RIP + cells/20 fields” value came out at 16.33 cells/20 fields in [2] (100 nM peptide); 8.833 cells/20 fields in [2] (setting [9]); 11.17 cells/20 fields in [2] (setting [10]); 12.33 cells/20 fields in test [2] (setting [11]); 13.33 cells/20 fields in test [3] (1 uM peptide); 22.33 cells/20 fields in [3] (10 uM peptide). Besides, the “Total # RIP + cells/20 fields” value in test [2] (100 nM peptide) is reported as 76.67 cells/20 fields; in [2] (setting [10]) it was 69.83 cells/20 fields; in [3] (1 uM peptide) it was 62.67 cells/20 fields; in test [3] (10 uM peptide), 75.83 cells/20 fields; in test [3] (setting [9]), 73.83 cells/20 fields; in test [3] (setting [11]), 76.83 cells/20 fields. Besides, in test [2] (summary of Table 6), the “effect on mature oligodendrocytes and gp120-associated myelin destruction” value is “increases the number of mature oligodendrocytes and blocks myelin destruction associated with gp 120 treatment”.

On to “F L H T R L F V S D W Y H T (FLHTRLFVSDWYHT; m13 library) [Peptide 15-15]”, for which the “inhibition of L2-412 binding to immobilized L2/HNK-1 glycolipids” value in the test with L2-412 antibody [4] (highest inhibitor concentration (free peptide 2.2 mM, SO3-sugar 5 mM, phage 10^12 TUs/ml), no inhibitor = 0%) is on record as 30-35%.

“F L H T R L F V S D W Y H T P [phage 15-15]”: the “binding of phage to immobilized laminin” value at laminin is listed as “bind to laminin in a concentration dependent manner”. Further, in the test with HNK-1 antibody, the “binding of phage to coated HNK-1 antibody” value is “does not bind HNK-1 antibody to a significant extent”.

On to “L1: neural cell adhesion molecule L1 [Peptide L1]”, for which the “cell cytopathic effects of chemotherapeutic agents” value in test [5] is on record as “reduced”.

Take “S G R G F C C W S N D S A L S [negative phage, reference compound]”: the “inhibitory effect on L2-412 binding to immobilized L2-glycolipids” value in the test with L2-412 antibody [4] (phage starting at 10^12) is listed as “did not show this inhibitory effect”.

As to “S L A P Y S L R I F V L F G G A (SLAPYSLRIFVLFGGA) [Peptide 15H233]”, in the test on L2-412 antibody [6], the “binding of phage to coated L2-412 antibody” value was “bind L2-412 and HNK-1, nearly to the same extent”. In the test with HNK-1 antibody, the “binding of phage to coated HNK-1 antibody” value was “bind L2-412 and HNK-1, nearly to the same extent”.

Take “T R L F R V P V F R L G D F W (TRLFRVPVFRLGDFW) [Peptide 15H92]”: in the test on L2-412 antibody [6], the “binding of phage to coated L2-412 antibody” value is “bind L2-412 and HNK-1, nearly to the same extent”. The “binding of phage to coated HNK-1 antibody” value with HNK-1 antibody is “bind L2-412 and HNK-1, nearly to the same extent”.

In test [7], FLHTRLFVSDWYHT [peptide 15-15 (free synthetic peptide …)] yielded a percent inhibition of 30 to 35%.
